Source: patent publication US4159328A, “Tetrahydro-1,3,5-thiadiazin-4-one derivative” (Nihon Nohyaku Co., Ltd., priority 1977, dated 1979)

What was measured:
[1] = test system: two-spotted spider mite (Tetranychus urticae Koch); experiment: Test Example 3: activity to two-spotted spider mite; format: in vivo; conditions: 120 h, 1,000 ppm, 5 days after treatment
Description: Activity to two-spotted spider mite (Tetranychus urticae Koch).
Testing method: Two-spotted spider mites were set free on the pot-planted soybean in a greenhouse. On the next day, a test composition of 1,000 ppm concentration was sprayed over the soybean by means of a spray gun. Two days or five days after the treatment, dead-and-survival was inspected to calculate the mortality.

[2] = test system: larvae of brown planthopper (Nilaparvata lugens Stahl); experiment: Test Example 1: insecticidal activity against larvae of brown planthopper; format: in vivo; conditions: 120 h, third-instar larvae, 25° C., 5 days after treatment
Protocol: Insecticidal activity against larvae of brown planthopper (Nilaparvata lugens Stahl).
Testing method: Five rice seedlings of the 1.5 leaf age were dipped in a test composition of 400 ppm concentration for 30 seconds. After air-drying, the seedlings were placed in a glass tube containing 1 ml of water and infested with five third-instar larvae of brown planthopper. The glass tube was left standing in a constant temperature cabinet at 25° C. and 5 or 7 days after the treatment, dead-and-survival was observed. Mortality was calculated from the results of 3-replication test.

| SMILES | mortality at 1000 ppm [1] [%] | mortality at 400 ppm [2] [%] |
| --- | --- | --- |
| CCN1C(=O)N(c2cc(Cl)ccc2Cl)CSC1=NC(C)(C)C [Compound 426] | 100 | 70 |
| Cc1cccc(C)c1N1CSC(=NC(C)(C)C)N(C(C)C)C1=O [Compound 388, 2-t-butylimino-3-isopropyl-5-(2,6-dimethylphenyl)tetrahydro-1,3,5-thiadiazin-4-one] | 100 | 100 |
| CCN1C(=O)N(c2cccc(C)c2C)CSC1=NC1CCCCC1 [Compound 382, 2-cyclohexylimino-3-ethyl-5-(2,3-dimethylphenyl)tetrahydro-1,3,5-thiadiazin-4-one] | 100 | 80 |
| CCCN1C(=O)N(c2ccc(OC)cc2)CSC1=NC1CCCCC1 [Compound 354] | 100 | 100 |
| CCCCCCN1C(=O)N(c2cccc(Cl)c2)CSC1=NC(C)C [Compound 234] |  | 100 |
| CC(C)N=C1SCN(c2cc(Cl)cc(Cl)c2)C(=O)N1C(C)C [Compound 406] | 60 | 80 |
| CCN1C(=O)N(c2ccccc2Cl)CSC1=NC(C)(C)C [Compound 241] | 70 | 100 |
| CC(C)N=C1SCN(c2ccccc2C(C)C)C(=O)N1C(C)C [Compound 342] |  | 100 |
| CC(C)N1C(=O)N(c2cc(Cl)cc(Cl)c2)CSC1=NC(C)(C)C [Compound 407] | 100 | 100 |
| CCN1C(=O)N(c2ccccc2C)CSC1=NC(C)(C)C [Compound 299] | 100 | 100 |
| CCC(C)N1C(=O)N(c2cc(Cl)ccc2Cl)CSC1=NC(C)(C)C (stereo not drawn) [Compound 428] | 100 | 100 |
| CCC(C)N1C(=O)N(c2ccccc2C(C)C)CSC1=NC(C)(C)C (stereo not drawn) [Compound 344] |  | 100 |
| COCCN1C(=O)N(c2cccc(Cl)c2)CSC1=NC(C)(C)C [Compound 229] |  | 100 |
| CC(C)N=C1SCN(c2cccc(Cl)c2)C(=O)N1C1CCCC1 [Compound 233] | 100 | 100 |
| CCc1ccc(N2CSC(=NC(C)C)N(C(C)C)C2=O)cc1 [Compound 332] |  | 100 |
| CCN1C(=O)N(c2ccc(Cl)c(Cl)c2)CSC1=NCC(C)C [Compound 419] | 100 |  |
| CC(C)N=C1SCN(c2ccc(Br)cc2)C(=O)N1C(C)C [Compound 293, 2-Isopropylimino-3-isopropyl-5-(p-bromophenyl)-tetrahydro-1,3,5-thiadiazin-4-one] | 100 | 100 |
| CC(C)N=C1SCN(c2cccc(Cl)c2)C(=O)N1C(C)c1ccccc1 (stereo not drawn) [Compound 237] | 100 | 100 |
| COCCN1C(=O)N(c2ccccc2)CSC1=NC(C)C [Compound 179] |  | 90 |
| CCC(C)N1C(=O)N(c2ccc(Br)cc2)CSC1=NC(C)(C)C (stereo not drawn) [Compound 295] | 100 | 100 |
| C=CCN1C(=O)N(c2ccccc2Cl)CSC1=NC(C)C [Compound 242] | 70 | 100 |
| C=CCN1C(=O)N(c2ccccc2C)CSC1=NC(C)(C)C [Compound 300] | 90 | 100 |
| CCC(C)N=C1SCN(c2ccc(Cl)cc2Cl)C(=O)N1C(C)CC (stereo not drawn) [Compound 400] | 70 | 100 |
| C=CCN1C(=O)N(c2ccccc2Cl)CSC1=NC(C)(C)C [Compound 243] |  | 100 |

| SMILES | mortality at 1000 ppm [1] [%] | mortality at 400 ppm [2] [%] |
| --- | --- | --- |
| CCC(C)N1C(=O)N(c2ccc(C)cc2C)CSC1=NC(C)(C)C (stereo not drawn) [Compound 380] | 100 | 100 |
| CC(C)N=C1SCN(c2ccc(OC(C)C)cc2)C(=O)N1C(C)C [Compound 372, 2-isopropylimino-3-isopropyl-5-(p-isopropoxyphenyl)-tetrahydro-1,3,5-thiadiazin-4-one] | 100 | 60 |
| Cc1cccc(N2CSC(=NC(C)(C)C)N(C(C)C)C2=O)c1C [Compound 384, 2-t-butylimino-3-isopropyl-5-(2,3-dimethylphenyl)-tetrahydro-1,3,5-thiadiazin-4-one] | 100 | 100 |
| CC(C)N1C(=O)N(c2ccccc2Cl)CSC1=NC1CCCCC1 [Compound 252, 2-Cyclohexylimino-3-isopropyl-5-(o-chlorophenyl)-tetrahydro-1,3,5-thiadiazin-4-one] |  | 100 |
| CC(C)N=C1SCN(c2ccccc2Cl)C(=O)N1Cc1ccco1 [Compound 255] | 100 | 100 |
| CC(C)N1C(=O)N(c2ccc(Cl)c(Cl)c2)CSC1=NC(C)(C)C [Compound 416, 2-t-Butylimino-3-isopropyl-5-(3,4-dichlorophenyl)-tetrahydro-1,3,5-thiadiazin-4-one] | 100 | 100 |
| COc1ccc(N2CSC(=NC(C)C)N(c3ccc(Cl)c(Cl)c3)C2=O)cc1 [Compound 359] | 100 |  |
| COCCCN1C(=O)N(c2ccccc2Cl)CSC1=NC(C)(C)C [Compound 258] | 100 | 100 |
| CC(C)N=C1NC(=O)N(c2ccc(F)cc2)CS1 [Compound 275] |  | 100 |
| CCc1ccccc1N1CSC(=NC(C)(C)C)N(C(C)C)C1=O [Compound 338] |  | 100 |
| COc1ccccc1N1CSC(=NC(C)(C)C)N(C(C)C)C1=O [Compound 360] |  | 100 |
| CCc1ccccc1N1CSC(=NC)N(C)C1=O [Compound 335] |  | 80 |
| CC(C)N=C1SCN(c2cc(Cl)cc(Cl)c2)C(=O)N1Cc1ccccc1 [Compound 408, 2-Isopropylimino-3-benzyl-5-(3,5-dichloro-phenyl)-tetrahydro-1,3,5-thiadiazin-4-one] | 100 |  |
| CC(C)N=C1SCN(c2ccc(OC(C)C)cc2)C(=O)N1C [Compound 370, 2-Isopropylimino-3-methyl-5-(p-isopropoxyphenyl)-tetrahydro-1,3,5-thiadiazin-4-one] | 100 |  |
| CC(C)(C)N=C1SCN(c2ccccc2)C(=O)N1Cc1ccccc1 [Compound 159] |  | 80 |
| CC(C)N=C1SCN(c2ccccc2)C(=O)N1c1ccc(F)cc1 [Compound 167] |  | 70 |
| CCOCCN1C(=O)N(c2ccccc2)CSC1=NC(C)(C)C [Compound 182] |  | 70 |
| CC(C)(C)N=C1NC(=O)N(c2ccc(F)cc2)CS1 [Compound 276] |  | 100 |
| CCN=C1SCN(c2ccccc2C)C(=O)N1CC [Compound 298] | 100 |  |
| CC(C)c1ccccc1N1CSC(=NC(C)(C)C)N(C(C)C)C1=O [Compound 343, 2-t-Butylimino-3-isopropyl-5-(o-isopropyl)-phenyl-tetrahydro-1,3,5-thiadiazin-4-one] |  | 100 |
| CCC(C)N=C1SCN(c2ccccc2Cl)C(=O)N1CC(C)C (stereo not drawn) [Compound 253] |  | 80 |
| CCc1ccccc1N1CSC(=NC(C)(C)C)N(C(C)CC)C1=O (stereo not drawn) [Compound 339, 2-t-butylimino-3-s-butyl-5-(o-ethylphenyl)-tetrahydro-1,3,5-thiadiazin-4-one] |  | 100 |
| CCc1ccc(N2CSC(=NC(C)(C)C)N(C(C)CC)C2=O)cc1 (stereo not drawn) [Compound 334] |  | 100 |
